Laboratory results from patent US12122761B2, “2-azaspiro[3.4]octane derivatives as M4 agonists” (NOVARTIS AG, priority 2019, dated 2024).
pEC50: −log10 of the molar value.

How the values were obtained:
[1] = target: T1, Cloned human M1 receptor (CHRM1) stably expressed in HEK293 cells (Homo sapiens, UniProt P11229); assay: CHRM1 Ca++ Flux Assay (agonist mode, FDSS 7000EX); assay type: cell-based; conditions: for M1 FDSS PA: Percent Activity; for pEC50: geometric mean if tested more than once; for Emax: HEK293, Percent Activity, read-out: M1 FDSS PA
T1 construct: expressed in transfected cells; host or cells: HEK293
T1 sequence (P11229 1-460): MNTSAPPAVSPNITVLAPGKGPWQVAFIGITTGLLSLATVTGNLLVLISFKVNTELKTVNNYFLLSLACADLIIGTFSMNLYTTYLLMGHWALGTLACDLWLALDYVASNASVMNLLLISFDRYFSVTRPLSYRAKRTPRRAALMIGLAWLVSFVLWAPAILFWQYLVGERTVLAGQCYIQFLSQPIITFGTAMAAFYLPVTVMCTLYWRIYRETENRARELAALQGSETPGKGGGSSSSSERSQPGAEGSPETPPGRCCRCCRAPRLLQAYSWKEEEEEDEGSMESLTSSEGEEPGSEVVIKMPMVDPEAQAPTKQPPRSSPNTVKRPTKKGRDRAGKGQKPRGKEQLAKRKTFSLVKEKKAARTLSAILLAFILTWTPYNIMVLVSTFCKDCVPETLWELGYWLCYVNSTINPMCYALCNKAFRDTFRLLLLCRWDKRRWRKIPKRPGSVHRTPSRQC
In short: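 Compounds tested as agonists at 11 concentrations in triplicate, with calcium traces captured over 3 minutes. Cells were HEK293 with stable human CHRM1 expression, plated overnight at 25K/well and loaded with calcium dye. Responses normalized to carbachol EC100 and fitted by four-parameter nonlinear regression.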

[2] = target: T2, human cloned CHRM4 receptor (M4_CHO cells) (Homo sapiens, UniProt P08173); assay: CHRM4 Ca++ Flux Assay (agonist mode, FDSS 7000EX); assay type: cell-based; conditions: for M4 FDSS PA / Emax: Percent Activity; for pEC50: geometric mean if tested more than once, read-out: M4 FDSS EC50; for Emax: read-out: M4 FDSS PA
T2 construct: expressed in transfected cells; host or cells: CHO-K1
T2 sequence (P08173 1-479): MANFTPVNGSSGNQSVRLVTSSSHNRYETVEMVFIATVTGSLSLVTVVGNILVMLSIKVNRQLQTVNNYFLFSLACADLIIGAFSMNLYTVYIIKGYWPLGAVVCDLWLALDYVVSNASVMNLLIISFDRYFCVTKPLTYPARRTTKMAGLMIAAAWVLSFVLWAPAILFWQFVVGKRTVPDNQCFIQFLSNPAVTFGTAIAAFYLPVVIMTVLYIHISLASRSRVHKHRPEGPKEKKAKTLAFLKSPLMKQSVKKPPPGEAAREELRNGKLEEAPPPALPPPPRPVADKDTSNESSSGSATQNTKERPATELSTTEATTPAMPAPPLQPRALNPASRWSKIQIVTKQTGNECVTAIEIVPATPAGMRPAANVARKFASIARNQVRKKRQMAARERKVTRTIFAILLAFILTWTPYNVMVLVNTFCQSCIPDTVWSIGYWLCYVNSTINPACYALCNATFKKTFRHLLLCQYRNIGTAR
In short: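 Agonist-mode response was expressed as percent of the Carbachol EC100 and fitted with four-parameter nonlinear regression over an 11-point triplicate dose series. Intracellular Ca++ was tracked for 3 min by fluorescent dye in CHO-K1 cells stably expressing human CHRM4. Cells were preincubated 60 min with 20 μM ATP in buffer containing 2.5 mM probenecid.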

Row | M1 FDSS PA [1] [%] | pEC50 [1] | M4 FDSS PA [2] [%] | pEC50 [2] | Emax [1] [%] | Emax [2] [%] | Compound
1 | 65 | 7.03 | 65 | 8.15 |  |  | FC(F)(F)Oc1ccccc1C1CCN([C@@H]2CCC3(C2)CN(c2ncco2)C3)CC1 (single isomer, unassigned) [Example 10K, (R)-2-(6-(4-(2-(trifluoromethoxy)phenyl)piperidin-1-yl)-2-azaspiro[3.4]octan-2-yl)oxazole or (S)-2-(6-(4-(2-(trifluoromethoxy)phenyl)piperidin-1-yl)-2-azaspiro[3.4]octan-2-yl)oxazole]
2 | 84 | 8.00 | 50 | 9.00 |  |  | O=C(N1CC2(CC[C@@H](N3CCC(c4ccccc4OCc4ncccn4)CC3)C2)C1)C1(F)CC1 (single isomer, unassigned) [Example 7M, (R)-(1-fluorocyclopropyl)(6-(4-(2-(pyrimidin-2-ylmethoxy)phenyl)piperidin-1-yl)-2-azaspiro[3.4]octan-2-yl)methanone or (S)-(1-fluorocyclopropyl)(6-(4-(2-(pyrimidin-2-ylmethoxy)phenyl)piperidin-1-yl)-2-azaspiro[3.4]octan-2-yl)methanone]
3 | 77 | 7.09 | 89 | > 9.40 |  |  | OC1CCC(c2ccccc2C2CCN([C@@H]3CCC4(C3)CN(c3nnco3)C4)CC2)CC1 (single isomer, unassigned) [Example 2O, (1s,4r)-4-(2-(1-((R)-2-(1,3,4-oxadiazol-2-yl)-2-azaspiro[3.4]octan-6-yl)piperidin-4-yl)phenyl)cyclohexan-1-ol or (1r,4r)-4-(2-(1-((R)-2-(1,3,4-oxadiazol-2-yl)-2-azaspiro[3.4]octan-6-yl)piperidin-4-yl)phenyl)cyclohexan-1-ol]
4 |  | 7.82 |  | > 9.40 | 83 | 77 | COc1ccccc1C1CCN([C@@H]2CCC3(C2)CN(c2ncon2)C3)CC1 [Example 4A, (R)-3-(6-(4-(2-methoxyphenyl)piperidin-1-yl)-2-azaspiro[3.4]octan-2-yl)-1,2,4-oxadiazole]
5 | 66 | 7.70 | 67 | 9.00 |  |  | COc1ccccc1C1CCN([C@H]2CCC3(C2)CN(c2ncco2)C3)CC1 (single isomer, unassigned) [Example 10J, (S)-2-(6-(4-(2-methoxyphenyl)piperidin-1-yl)-2-azaspiro[3.4]octan-2-yl)oxazole or (R)-2-(6-(4-(2-methoxyphenyl)piperidin-1-yl)-2-azaspiro[3.4]octan-2-yl)oxazole]
6 |  | < 4.60 |  | 7.54 | 0 | 61 | Cc1ccc(N2CC3(CC[C@@H](N4CCC(c5ccccc5O[C@@H]5CCOC5)CC4)C3)C2)cn1 [Example 5L, (R)-2-(6-methylpyridin-3-yl)-6-(4-(2-(((R)-tetrahydrofuran-3-yl)oxy)phenyl)piperidin-1-yl)-2-azaspiro[3.4]octane]
7 | 69 | 6.52 | 81 | 9.00 |  |  | O[C@H]1CC[C@@H](c2ccccc2C2CCN([C@@H]3CCC4(C3)CN(c3nnco3)C4)CC2)CC1 (single isomer, unassigned) [Example 2N, (1S,4s)-4-(2-(1-((R)-2-(1,3,4-oxadiazol-2-yl)-2-azaspiro[3.4]octan-6-yl)piperidin-4-yl)phenyl)cyclohexan-1-ol or (1R,4r)-4-(2-(1-((R)-2-(1,3,4-oxadiazol-2-yl)-2-azaspiro[3.4]octan-6-yl)piperidin-4-yl)phenyl)cyclohexan-1-ol]
8 | 34 | 6.92 | 55 | 9.00 |  |  | O=C(N1CC2(CC[C@@H](N3CCC(c4ccccc4OC4CCOCC4)CC3)C2)C1)C1(F)CC1 (single isomer, unassigned) [Example 9E, (R)-(1-fluorocyclopropyl)(6-(4-(2-((tetrahydro-2H-pyran-4-yl)oxy)phenyl)piperidin-1-yl)-2-azaspiro[3.4]octan-2-yl)methanone or (S)-(1-fluorocyclopropyl)(6-(4-(2-((tetrahydro-2H-pyran-4-yl)oxy)phenyl)piperidin-1-yl)-2-azaspiro[3.4]octan-2-yl)methanone]
9 | 55 | 7.33 | 66 | 8.30 |  |  | O=C(N1CC2(CC[C@@H](N3CCC(c4ccccc4OC(F)(F)F)CC3)C2)C1)C1(F)CC1 (single isomer, unassigned) [Example 9B, (R)-(1-fluorocyclopropyl)(6-(4-(2-(trifluoromethoxy)phenyl)piperidin-1-yl)-2-azaspiro[3.4]octan-2-yl)methanone or (S)-(1-fluorocyclopropyl)(6-(4-(2-(trifluoromethoxy)phenyl)piperidin-1-yl)-2-azaspiro[3.4]octan-2-yl)methanone]
10 | 4 | 5.40 | 59 | 7.57 |  |  | Fc1ccc(OC2CC3(COC3)C2)c(C2CCN([C@@H]3CCC4(C3)CN(c3cncnc3)C4)CC2)c1 (single isomer, unassigned) [Example 10E, (R)-6-(4-(2-((2-oxaspiro[3.3]heptan-6-yl)oxy)-5-fluorophenyl)piperidin-1-yl)-2-(pyrimidin-5-yl)-2-azaspiro[3.4]octane or (S)-6-(4-(2-((2-oxaspiro[3.3]heptan-6-yl)oxy)-5-fluorophenyl)piperidin-1-yl)-2-(pyrimidin-5-yl)-2-azaspiro[3.4]octane]
11 | 36 | 5.86 | 51 | 7.72 |  |  | Fc1ccc(OC2CCOCC2)c(C2CCN([C@@H]3CCC4(C3)CN(c3cncnc3)C4)CC2)c1 (single isomer, unassigned) [Example 10H, (R)-6-(4-(5-fluoro-2-((tetrahydro-2H-pyran-4-yl)oxy)phenyl)piperidin-1-yl)-2-(pyrimidin-5-yl)-2-azaspiro[3.4]octane or (S)-6-(4-(5-fluoro-2-((tetrahydro-2H-pyran-4-yl)oxy)phenyl)piperidin-1-yl)-2-(pyrimidin-5-yl)-2-azaspiro[3.4]octane]
12 |  | < 4.60 |  | < 4.60 | 0 | 0 | Cc1coc(N2CC3(CC[C@@H](N4CCC(c5ccc(F)cc5OCC(C)(C)O)CC4)C3)C2)n1 [Example 3N, (R)-1-(5-fluoro-2-(1-(2-(4-methyloxazol-2-yl)-2-azaspiro[3.4]octan-6-yl)piperidin-4-yl)phenoxy)-2-methylpropan-2-ol]
13 |  | < 4.60 |  | 7.59 | 0 | 50 | COc1ccccc1C1CCN([C@@H]2CCC3(C2)CN(c2ccc(Cl)nn2)C3)CC1 [Example 5N, (R)-2-(6-chloropyridazin-3-yl)-6-(4-(2-methoxyphenyl)piperidin-1-yl)-2-azaspiro[3.4]octane]
14 | 66 | 6.77 | 71 | 8.10 |  |  | COc1ccccc1C1CCN([C@@H]2CCC3(C2)CN(c2ncns2)C3)CC1 (single isomer, unassigned) [Example 10Q, (R)-5-(6-(4-(2-methoxyphenyl)piperidin-1-yl)-2-azaspiro[3.4]octan-2-yl)-1,2,4-thiadiazole or (S)-5-(6-(4-(2-methoxyphenyl)piperidin-1-yl)-2-azaspiro[3.4]octan-2-yl)-1,2,4-thiadiazole]
15 | 57 | 7.43 | 42 | 8.05 |  |  | O=C(N1CC2(CC[C@@H](N3CCC(c4ccccc4OCC4CC4)CC3)C2)C1)C1(F)CC1 (single isomer, unassigned) [Example 7O, (R)-(6-(4-(2-(cyclopropylmethoxy)phenyl)piperidin-1-yl)-2-azaspiro[3.4]octan-2-yl)(1-fluorocyclopropyl)methanone or (R)-(6-(4-(2-(cyclopropylmethoxy)phenyl)piperidin-1-yl)-2-azaspiro[3.4]octan-2-yl)(1-fluorocyclopropyl)methanone]
